Results on twelve molecules are retold here after PMC8303947, “Evaluation of Ruthenium(II) N-Heterocyclic Carbene Complexes as Antibacterial Agents and Inhibitors of Bacterial Thioredoxin Reductase” (Molecules, 2021).

Values after ≈ are worked out from the molar mass of the structure shown. Where two headings read alike, the source gives them in different places.

One assay relates to A. baumannii DSM 30007. In words: Antimicrobial microtiter plate MIC assay, A. baumannii. The format is cell-based, Acinetobacter baumannii. As to conditions: Mueller Hinton broth, 16–18 h at 37 °C. As for the experimental part:
(§1) The fungus Candida albicans was used as a non-bacterial reference organism. The broad-spectrum antibiotic Ciprofloxacin was used as a reference drug.
(§2) Compounds were tested in a microtiter plate assay according to CLSI guidelines against E. coli DSM 30083, A. baumannii DSM 30007, P. aeruginosa DSM 50071, B. subtilis DSM 402, S. aureus DSM 20231, S. aureus ATCC 43300 (MRSA), and C. albicans, as described previously. E. coli, A. baumannii, S. aureus, and B. subtilis were grown in Mueller Hinton broth, P. aeruginosa in cation-adjusted Mueller Hinton II, and C. albicans DSM1386 in Sabouraud broth. Compounds were dissolved in DMSO at 10 mg/mL. Starting from a 10 mg/mL stock solution, serial dilutions in culture media were prepared with the Tecan Freedom Evo 75 liquid handling workstation (Tecan, Männedorf, Switzerland), covering a range from 512 to 0.5 µg/mL. Assay volumes were 200 µL per well. After inoculating with 5 × 10^5 bacteria/mL from late exponential cultures grown in the same media, cultures were incubated for 16–18 h at 37 °C. The lowest compound concentration inhibiting visible bacterial growth was recorded as MIC.

Assay [1] concerns S. aureus ATCC 43300 (MRSA). In words: Antimicrobial microtiter plate MIC assay, S. aureus ATCC 43300 (MRSA). The format is cell-based, Staphylococcus aureus. As to conditions: Gram-positive, Mueller Hinton broth, 16–18 h at 37 °C. How it is done: as §1, §2
Another assay concerns S. aureus DSM 20231. In words: Antimicrobial microtiter plate MIC assay, S. aureus DSM 20231. Format: cell-based, Staphylococcus aureus. The note with it: Mueller Hinton broth, 16–18 h at 37 °C. How it is done: as §1, §2
The subject of another assay is E. coli DSM 30083. In words: Antimicrobial microtiter plate MIC assay, E. coli. The format is cell-based, Escherichia coli. As to conditions: Mueller Hinton broth, 16–18 h at 37 °C. How it is done:
as §1, §2

For another assay, the system named is B. subtilis 168. In words: Antimicrobial microtiter plate MIC assay, B. subtilis. The format is cell-based, Bacillus subtilis. The note with it: Gram-positive, B. subtilis 168 (DSM 402), Mueller Hinton broth, 16–18 h at 37 °C. As for the experimental part:
as §1, §2

Another assay relates to P. aeruginosa DSM 50071. In words: Antimicrobial microtiter plate MIC assay, P. aeruginosa. Format: cell-based, Pseudomonas aeruginosa. The note with it: cation-adjusted Mueller Hinton II, 16–18 h at 37 °C. As for the experimental part:
as §1, §2

The next assay has as its system C. albicans DSM 1386. In words: Antimicrobial microtiter plate MIC assay, C. albicans. The format is cell-based, Candida albicans. The note with it: Sabouraud broth. How it is done: as §1
E. coli, A. baumannii, S. aureus, and B. subtilis were grown in Mueller Hinton broth, P. aeruginosa in cation-adjusted Mueller Hinton II, and C. albicans DSM1386 in Sabouraud broth. Compounds were dissolved in DMSO at 10 mg/mL. […] Assay volumes were 200 µL per well. After inoculating with 5 × 10^5 bacteria/mL from late exponential cultures grown in the same media, cultures were incubated for 16–18 h at 37 °C. The lowest compound concentration inhibiting visible bacterial growth was recorded as MIC.

In the next assay the target is T1, E. coli TrxR (Escherichia coli, UniProt P0A9P4).
T1 construct: purchased Merck (Darmstadt, Germany)
In words: Inhibition of bacterial TrxR (E. coli), 5,5-dithiobis-(2-nitrobenzoic acid) reduction assay. Format: biochemical. As for the experimental part:
The inhibition of TrxR has been considered as a novel mode of action for antibiotics and in our previous report, the relevance for gold NHC complexes had been shown.
The TrxR (E. coli) inhibition assay was performed according to a previously published procedure. It is partly based on the procedure developed by Lu et al. and detects the formation of 5-TNB (5-thionitrobenzoic acid). Solutions of E. coli TrxR (35.4 U/mL) and of its substrate thioredoxin (Trx) E. coli (156 µg/mL) (both purchased from Merck (Darmstadt, Germany) and diluted with distilled water) and fresh stock solutions of the test compounds (in DMF) were prepared. TE buffer (Tris-HCl 50 mM, EDTA 1 mM, pH 7.5) containing graded concentrations of the respective compounds (20 µL) or buffer without compounds (20 µL, as control) were mixed with TrxR solution (10 µL), Trx solution (10 µL), and a solution of NADPH (200 µM) in TE buffer (100 µL) in a well on a 96-well plate. As blank solution, 200 µM NADPH in TE buffer (100 µL) mixed with a DMF/buffer mixture (40 µL) was used (final concentrations of DMF: 0.5% v/v). The solutions on the 96-well plates were incubated for 75 min at 25 °C with moderate shaking. […] The highest test compound concentration was used and the enzyme solution was replaced by TE buffer for this purpose.

Setting [2] is: Acinetobacter baumannii, DSM30007, Gram-negative.
Setting [3] is: purified E. coli TrxR, DTNB reduction, 75 min preincubation at 25 °C, mean (±SD) of three experiments, read-out: IC50 inhibition of E. coli TrxR.
[4] abbreviates: Staphylococcus aureus, DSM20231, Gram-positive.
[5] abbreviates: Escherichia coli, DSM30083, Gram-negative.
Setting [6] is: Pseudomonas aeruginosa, DSM50071, Gram-negative.
Setting [7] is: Candida albicans, DSM1386, fungus.

T1 sequence (P0A9P4 whole entry): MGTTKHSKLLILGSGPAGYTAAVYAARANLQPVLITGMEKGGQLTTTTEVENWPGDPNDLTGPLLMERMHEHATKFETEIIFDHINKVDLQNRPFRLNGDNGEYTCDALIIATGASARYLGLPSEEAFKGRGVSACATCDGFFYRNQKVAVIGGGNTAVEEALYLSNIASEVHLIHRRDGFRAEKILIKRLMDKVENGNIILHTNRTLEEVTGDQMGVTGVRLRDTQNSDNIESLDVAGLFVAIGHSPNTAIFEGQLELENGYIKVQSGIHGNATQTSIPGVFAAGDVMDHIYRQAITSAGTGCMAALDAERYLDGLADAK

Usually MIC stands for the lowest concentration that inhibits growth of the organism. For the molecule “1,3-Dibenzyl-5-chloro-1H-benzimidazolium bromide [2e]”, the MIC against A. baumannii DSM 30007 (Gram-negative) worked out at 1242.6 µM; in assay [1], 77.7 µM; against S. aureus DSM 20231 (Gram-positive), 77.7 µM; with E. coli DSM 30083 (Gram-negative), 1242.6 µM; against B. subtilis 168 it was 155.3 µM; against P. aeruginosa DSM 50071 (Gram-negative), 1242.6 µM. The MIC with C. albicans DSM 1386 (fungus) is given as 1242.6 µM.

On to “1,3-Dibenzyl-5-fluoro-1H-benzimidazolium bromide [2d]”, for which the MIC with A. baumannii DSM 30007 (Gram-negative) is listed as >1288.7 µM; in assay [1], 161.1 µM; against S. aureus DSM 20231 (Gram-positive), 161.1 µM; against E. coli DSM 30083 (Gram-negative), 1288.7 µM; with B. subtilis 168, 322.2 µM; in the assay with P. aeruginosa DSM 50071 (Gram-negative) it was >1288.7 µM. Further, the MIC in the assay on C. albicans DSM 1386 (fungus) is >1288.7 µM.

With “1,3-Dibenzyl-5-methoxy-1H-benzimidazolium bromide [2c]”, the MIC against A. baumannii DSM 30007 (Gram-negative) is recorded as 1250.8 µM; in assay [1], 19.5 µM; in the assay on S. aureus DSM 20231 (Gram-positive), 19.5 µM; in the assay on E. coli DSM 30083 (Gram-negative), 1250.8 µM; in the assay on B. subtilis 168, 78.2 µM; with P. aeruginosa DSM 50071 (Gram-negative), 1250.8 µM. In addition, in the assay on C. albicans DSM 1386 (fungus), the MIC was 1250.8 µM.

As usually defined, the IC50 is the concentration needed to halve the response being measured. In the case of `c1ccc(Cn2c[n+](Cc3ccccc3)c3ccccc32)cc1` [2a], the MIC is 1350 µM against A. baumannii DSM 30007 (setting [2]); 42.2 µM in assay [1] (Staphylococcus aureus); 42.2 µM with S. aureus DSM 20231 (setting [4]); 1350 µM in the assay with E. coli DSM 30083 (setting [5]); 169 µM in the assay with B. subtilis 168 (Bacillus subtilis, DSM402); 1350 µM in the assay on P. aeruginosa DSM 50071 (setting [6]). The minimum inhibitory concentration (MIC) in the assay on C. albicans DSM 1386 (setting [7]) worked out at 1350 µM. In addition, at E. coli TrxR (setting [3]), the IC50 is > 100 µM.

For the molecule `Cc1ccc2c(c1)n(Cc1ccccc1)c[n+]2Cc1ccccc1` [2b, 1,3-Dibenzyl-5-methyl-1H-benzimidazolium bromide], the MIC against A. baumannii DSM 30007 (setting [2]) stood at 1300 µM; in assay [1] (Staphylococcus aureus) it was 163 µM; against S. aureus DSM 20231 (setting [4]), 81.4 µM; against E. coli DSM 30083 (setting [5]), 1300 µM; in the assay on B. subtilis 168 (Bacillus subtilis, DSM402), 651 µM; against P. aeruginosa DSM 50071 (setting [6]) it was 1300 µM. The molecule further displayed an MIC with C. albicans DSM 1386 (setting [7]) of 1300 µM. Besides, on E. coli TrxR, the IC50 was > 100 µM.

`Brc1ccc2c(c1)n(Cc1ccccc1)c[n+]2Cc1ccccc1` [2f, 1,3-Dibenzyl-5-bromo-1H-benzimidazolium bromide]: the MIC with A. baumannii DSM 30007 (setting [2]) was > 1120 µM; in assay [1] (Staphylococcus aureus) it was 69.8 µM; with S. aureus DSM 20231 (setting [4]) it was 140 µM; in the assay on E. coli DSM 30083 (setting [5]), > 1120 µM; with B. subtilis 168 (Bacillus subtilis, DSM402), 279 µM; in the assay with P. aeruginosa DSM 50071 (setting [6]) it was > 1120 µM. For the same molecule, the MIC with C. albicans DSM 1386 (setting [7]) was > 1120 µM. The IC50 against E. coli TrxR is > 100 µM.

As to `Cc1ccc(C(C)C)cc1.Cc1ccc2c(c1)n(Cc1ccccc1)[c](=[Ru]([Cl])[Cl])n2Cc1ccccc1` [3b, (1,3-Dibenzyl-5-methyl-1H-benzimidazol-2-ylidene)-dichlorido-(η^6-p-cymene)ruthenium(II)], the MIC against A. baumannii DSM 30007 (Gram-negative) turned out to be 413.8 µM; in assay [1] it was 25.9 µM; against S. aureus DSM 20231 (Gram-positive), 25.9 µM; in the assay with E. coli DSM 30083 (Gram-negative), 827.7 µM; against B. subtilis 168 it was 25.9 µM; in the assay on P. aeruginosa DSM 50071 (Gram-negative), 413.8 µM. In the assay on C. albicans DSM 1386 (fungus), the MIC is recorded as >827.7 µM. In addition, the IC50 on E. coli TrxR (setting [3]) came out at 14 µM.

Take `COc1ccc2c(c1)n(Cc1ccccc1)[c](=[Ru]([Cl])[Cl])n2Cc1ccccc1.Cc1ccc(C(C)C)cc1` [3c, (1,3-Dibenzyl-5-methoxy-1H-benzimidazol-2-ylidene)-dichlorido-(η^6-p-cymene)ruthenium(II)]: the MIC was >806.8 µM in the assay on A. baumannii DSM 30007 (Gram-negative); 25.2 µM in assay [1]; 25.2 µM in the assay on S. aureus DSM 20231 (Gram-positive); >806.8 µM in the assay on E. coli DSM 30083 (Gram-negative); 25.2 µM in the assay with B. subtilis 168; >806.8 µM against P. aeruginosa DSM 50071 (Gram-negative). Besides, the MIC in the assay with C. albicans DSM 1386 (fungus) is given as >806.8 µM.

Take `Cc1ccc(C(C)C)cc1.Fc1ccc2c(c1)n(Cc1ccccc1)[c](=[Ru]([Cl])[Cl])n2Cc1ccccc1` [3d, (1,3-Dibenzyl-5-fluoro-1H-benzimidazol-2-ylidene)-dichlorido-(η^6-p-cymene)ruthenium(II)]: the MIC in the assay on A. baumannii DSM 30007 (Gram-negative) was 205.6 µM; in assay [1] it was 25.7 µM; against S. aureus DSM 20231 (Gram-positive), 25.7 µM; in the assay with E. coli DSM 30083 (Gram-negative), 822.4 µM; with B. subtilis 168, 25.7 µM; in the assay with P. aeruginosa DSM 50071 (Gram-negative) it was >822.4 µM. Also, the minimum inhibitory concentration (MIC) against C. albicans DSM 1386 (fungus) was >822.4 µM.

As for `Cc1ccc(C(C)C)cc1.Clc1ccc2c(c1)n(Cc1ccccc1)[c](=[Ru]([Cl])[Cl])n2Cc1ccccc1` [3e, (1,3-Dibenzyl-5-chloro-1H-benzimidazol-2-ylidene)-dichlorido-(η^6-p-cymene)ruthenium(II)], the MIC against A. baumannii DSM 30007 (Gram-negative) is recorded as >802.4 µM; in assay [1], 12.5 µM; against S. aureus DSM 20231 (Gram-positive), 25.1 µM; in the assay on E. coli DSM 30083 (Gram-negative), 401.2 µM; against B. subtilis 168, 25.1 µM; against P. aeruginosa DSM 50071 (Gram-negative), >802.4 µM. For the same molecule, the MIC with C. albicans DSM 1386 (fungus) is on record as >802.4 µM.

Consider `Cc1ccc(C(C)C)cc1.[Cl][Ru]([Cl])=[c]1n(Cc2ccccc2)c2ccc(Br)cc2n1Cc1ccccc1` [3f, (1,3-Dibenzyl-5-bromo-1H-benzimidazol-2-ylidene)-dichlorido-(η^6-p-cymene)ruthenium(II)], for which the MIC is reported as >749.1 µM against A. baumannii DSM 30007 (Gram-negative); 11.7 µM in assay [1]; 23.4 µM against S. aureus DSM 20231 (Gram-positive); 374.6 µM against E. coli DSM 30083 (Gram-negative); 11.7 µM against B. subtilis 168; >749.1 µM against P. aeruginosa DSM 50071 (Gram-negative). Besides, the MIC with C. albicans DSM 1386 (fungus) is >749.1 µM. Further, on E. coli TrxR (setting [3]), the IC50 is > 100 µM.

On to `O=C(O)c1cn(C2CC2)c2cc(N3CCNCC3)c(F)cc2c1=O` [Ciprofloxacin, reference compound], for which the MIC in the assay with A. baumannii DSM 30007 (setting [2]) is 24 µM (≈ 7.95 µg/mL); in assay [1] (Staphylococcus aureus), 12 µM (≈ 3.98 µg/mL); in the assay with S. aureus DSM 20231 (setting [4]), 12 µM (≈ 3.98 µg/mL); in the assay with E. coli DSM 30083 (setting [5]), 1.5 µM (≈ 0.497 µg/mL); with B. subtilis 168 (Bacillus subtilis, DSM402), 24 µM (≈ 7.95 µg/mL); in the assay on P. aeruginosa DSM 50071 (setting [6]), 1.2 µM (≈ 0.398 µg/mL).
